According to patent US11078202B2, “β-lactamase inhibitor and use thereof” (priority 2018, dated 2021):
Where a name gives a salt, the structure may show the parent alone.

Key:
Assay type in all cases: cell-based
[1] = tested on: Acinetobacter baumannii XNWB 0007; test: MIC assay of test compounds combined with ceftazidime (8 μg/mL); conditions: ceftazidime 8 μg/mL fixed
Procedure: (§1) The bacterial strains used for the minimum inhibitory concentration (MIC) test were frozen in a −80° C. ULT freezer and thawed 2 days before use. A small amount of frozen bacterial strains were scraped using a sterile inoculating loop, streaked onto a TSA solid culture dish for inoculation, and then cultured for 20-24 h at 35±2° C. in a normal atmospheric environment. 5-10 colonies with similar morphology were picked from the culture dish using a sterile inoculating loop and then re-streaked onto a suitable solid culture dish. Then the dish was placed into a normal incubator for culture for 20-24 h at 35±2° C. 5-10 single bacterial colonies were picked from the solid culture dish, resuspended in 500 μL of 0.9% NaCl, and adjusted to an OD600 of 0.1-0.15 with a spectrophotometer. The bacteria were then diluted 300-fold with 1.1×CAMHB. […] Dilution of test compounds: […] 2 μL of each compound in the dilution master plate of the test compounds was transferred to the corresponding well of the assay plates. In the mean time, 2 μL of 100% DMSO was transferred to the compound-free wells (GC and SC wells). (1) 8 μL of imipenem in the additive plate of imipenem was transferred to the corresponding wells of the assay plates; (2) 8 μL of ceftazidime in the additive plate of ceftazidime was transferred to the corresponding wells of the assay plates; (3) 8 μL of ampicillin in the additive plate of ampicillin was transferred to the corresponding wells of the assay plates. 90 μL of corresponding bacterial inocula were added to wells (except for SC wells) of the assay plates. After addition, the 6 assay plates were covered by sterile covers. The mixtures in the assay plates were centrifuged by a centrifuge at 1000 rpm for 30 s, and mixed uniformly by oscillating with a microplate oscillator at 800 rpm for 1 min, and then cultured in a common incubator for 16-20 h at 35±2° C. The minimum inhibitory concentration of each compound was recorded by reference to guidelines from the Clinical and Laboratory Standards Institute. […] The effect of the test compounds in combination with imipenem, ceftazidime, and ampicillin was also tested. […] The bacterial inocula in the assay plates were resuscitated from TSA and diluted in CAMHB, while growth controls (GC wells) and sterile controls (SC wells) were set up in the assay plates. The minimum inhibitory concentration of each compound combination against different bacteria was observed and recorded after the assay plates were incubated in a common incubator at 35±2° C. for 16-20 h, and the results are shown in Tables 1-3.

[2] = tested on: Klebsiella pneumoniae XNWB 0001; test: as above; conditions: ceftazidime 8 μg/mL fixed
Procedure: as §1

[3] = tested on: Klebsiella pneumoniae XNWB 0002; test: as above; conditions: ceftazidime 8 μg/mL fixed
Procedure: as §1

[4] = tested on: Klebsiella pneumoniae XNWB 0003; test: as above; conditions: ceftazidime 8 μg/mL fixed
Procedure: as §1

[5] = tested on: Klebsiella pneumoniae XNWB 0004; test: as above; conditions: ceftazidime 8 μg/mL fixed
Procedure: as §1

[6] = tested on: Klebsiella pneumoniae XNWB 0005; test: as above; conditions: ceftazidime 8 μg/mL fixed
Procedure: as §1

[7] = tested on: Klebsiella pneumoniae XNWB 0006; test: as above; conditions: ceftazidime 8 μg/mL fixed
Procedure: as §1

[8] = tested on: Pseudomonas aeruginosa XNWB 0008; test: as above; conditions: ceftazidime 8 μg/mL fixed
Procedure: as §1

[9] = tested on: Acinetobacter baumannii XNWB 0007; test: MIC assay of test compounds combined with imipenem (4 μg/mL); conditions: imipenem 4 μg/mL fixed
Procedure: as §1

[10] = tested on: Klebsiella pneumoniae XNWB 0001; test: as above; conditions: imipenem 4 μg/mL fixed
Procedure: as §1

[11] = tested on: Klebsiella pneumoniae XNWB 0002; test: as above; conditions: imipenem 4 μg/mL fixed
Procedure: as §1

[12] = tested on: Klebsiella pneumoniae XNWB 0003; test: as above; conditions: imipenem 4 μg/mL fixed
Procedure: as §1

[13] = tested on: Klebsiella pneumoniae XNWB 0004; test: as above; conditions: imipenem 4 μg/mL fixed
Procedure: as §1

[14] = tested on: Klebsiella pneumoniae XNWB 0005; test: as above; conditions: imipenem 4 μg/mL fixed
Procedure: as §1

[15] = tested on: Klebsiella pneumoniae XNWB 0006; test: as above; conditions: imipenem 4 μg/mL fixed
Procedure: as §1

[16] = tested on: Pseudomonas aeruginosa XNWB 0008; test: as above; conditions: imipenem 4 μg/mL fixed
Procedure: as §1

Structure (SMILES)	The minimum concentration of test compounds combined with ceftazidime (8 μg/mL) for bacteriostasis [1]	The minimum concentration of test compounds combined with ceftazidime (8 μg/mL) for bacteriostasis [2]	The minimum concentration of test compounds combined with ceftazidime (8 μg/mL) for bacteriostasis [3]	The minimum concentration of test compounds combined with ceftazidime (8 μg/mL) for bacteriostasis [4]	The minimum concentration of test compounds combined with ceftazidime (8 μg/mL) for bacteriostasis [5]	The minimum concentration of test compounds combined with ceftazidime (8 μg/mL) for bacteriostasis [6]	The minimum concentration of test compounds combined with ceftazidime (8 μg/mL) for bacteriostasis [7]	The minimum concentration of test compounds combined with ceftazidime (8 μg/mL) for bacteriostasis [8]	The minimum concentration of test compounds combined with imipenem (4 μg/mL) for bacteriostasis [9]	The minimum concentration of test compounds combined with imipenem (4 μg/mL) for bacteriostasis [10]	The minimum concentration of test compounds combined with imipenem (4 μg/mL) for bacteriostasis [11]	The minimum concentration of test compounds combined with imipenem (4 μg/mL) for bacteriostasis [12]	The minimum concentration of test compounds combined with imipenem (4 μg/mL) for bacteriostasis [13]	The minimum concentration of test compounds combined with imipenem (4 μg/mL) for bacteriostasis [14]	The minimum concentration of test compounds combined with imipenem (4 μg/mL) for bacteriostasis [15]	The minimum concentration of test compounds combined with imipenem (4 μg/mL) for bacteriostasis [16]
O=C(NC1CCNCC1)[C@@H]1CC[C@@H]2CN1C(=O)N2OS(=O)(=O)O [Relebactam, reference compound]	C (C: 16-128 μg/mL)	A (A: <8 μg/mL)	A (A: <8 μg/mL)	A (A: <8 μg/mL)	A (A: <8 μg/mL)	A (A: <8 μg/mL)	A (A: <8 μg/mL)	A (A: <8 μg/mL)	C (C: 16-128 μg/mL)	A (A: <8 μg/mL)	A (A: <8 μg/mL)	A (A: <8 μg/mL)	A (A: <8 μg/mL)	A (A: <8 μg/mL)	A (A: <8 μg/mL)	A (A: <8 μg/mL)
O=C1N2C[C@H](N1OS(=O)(=O)O)C1(CC1)C[C@H]2c1cc(C2CCCNC2)on1 (stereo partly drawn) [Example 44, (1R,4S)-6-oxo-4-(5-(piperidin-3-yl)isoxazol-3-yl)-5,7-diazaspiro[bicyclo[3.2.1]octane-2,1′-cyclopropan]-7-yl sulfate]	C (C: 16-128 μg/mL)	A (A: <8 μg/mL)	A (A: <8 μg/mL)	A (A: <8 μg/mL)	B (B: 8-16 μg/mL)	A (A: <8 μg/mL)	A (A: <8 μg/mL)	B (B: 8-16 μg/mL)	C (C: 16-128 μg/mL)	A (A: <8 μg/mL)	A (A: <8 μg/mL)	A (A: <8 μg/mL)	A (A: <8 μg/mL)	A (A: <8 μg/mL)	A (A: <8 μg/mL)	A (A: <8 μg/mL)
